Source: patent publication US4536518A, “Antidepressant derivatives of cis-4-phenyl-1,2,3,4-tetrahydro-1-naphthalenamine” (priority 1979, dated 1985)
Counter-ions that a name gives are not always drawn. Like-named read-outs stand apart in the source and are kept apart here.

Tests used:
[1] = tested on: Synaptosomal Uptake of Norepinephrine (NE), rat hypothalmus; assay: Blockade of synaptosomal uptake of norepinephrine (NE) in vitro; assay type: biochemical, rat (Sprague-Dawley CD)
Protocol: (§1) Sprague-Dawley CD male rats weighing 180-220 g. (Charles River Laboratories, Inc.; Wilmington, Mass.) were used in this procedure. A crude synaptosomal fraction of rat corpus striatum (for 5HT and DA uptake) or hypothalmus (for NE uptake) tissue was prepared by homogenizing tissue (25 ml./g. wet) in ice-cold 0.32M sucrose containing 1 mg./ml. glucose, 0.0001M EDTA and tris(hydroxymethyl)aminomethane to pH 7.4. The homogenate was centrifuged at 1000 × g for 10 min. at 0°-4° C., the pellet discarded and the supernatant centrifuged at 17,000 × g for 20 min. at 0°-4° C. The resulting pellet was resuspended in the ice-cold 0.32M sucrose pH 7.4 solution at 10 ml./g. original tissue (wet) for corpus striatum and 5 ml./g. original tissue (wet) for hypothalmus. […] After incubation, the mixtures were filtered through 0.45 micron Millipore filters and the filters washed with the incubation buffer. […] Uptake was calculated as picomoles 5HT, DA or NE per mg. protein (protein was determined by measurement with Folin phenol reagent).

[2] = tested on: Synaptosomal Uptake of Dopamine (DA), rat corpus striatum; assay: Blockade of synaptosomal uptake of dopamine (DA) in vitro; assay type: biochemical, rat (Sprague-Dawley CD)
Protocol: as §1

[3] = tested on: 5-hydroxytryptophan-induced tremors in mice; assay: Potentiation of 5-hydroxytryptophan-induced behavioral symptoms (tremors) in vivo; set-up: species or system mouse (Swiss-Webster CD); details: Mus musculus
Protocol: The mice were rated for the presence of this symptom by a "blinded observer" at 10-20 min. after 5HTP treatment.

[4] = tested on: Behavioral Despair in mice; assay: Reduction of behavioral despair in vivo (modified Porsolt method); set-up: species or system mouse (Swiss-Webster CD); details: for ED50: Mus musculus, sc, mice, subcutaneous
Protocol: A modification of the procedure described by Porsolt et al., Arch. Int. […] (Charles River Laboratories, Inc.; Wilmington, Mass.) were housed under standard laboratory conditions for at least one week prior to experimentation. Groups of 10 mice were then injected subcutaneously with either a given dosage of the named test compound or vehicle (5% Emulphor: 5% ethanol: 90% normal saline). One hour later the mice were placed individually in 1 liter beakers containing 7 cm. of 25° C. water. Beginning at 2 min. after immersion, each mouse was observed every 30 sec. for the presence of immobility, characterized as floating motionless in the water. A total of ten observations were made, each being scored as "0=animal moving, swimming, attempting to escape" or "1=animal immobile". The number of positive observations for each mouse was then totaled and a mean immobility score calculated for the group of ten.

[5] = tested on: Synaptosomal Uptake of Serotonin (5HT), rat corpus striatum; assay: Blockade of synaptosomal uptake of serotonin (5HT) in vitro; assay type: biochemical, rat (Sprague-Dawley CD); details: 5HT uptake, Examples 26-49
Protocol: as §1

[6] = tested on: synaptosomal norepinephrine uptake; details: prior art; cited from earlier work
uptake of serotonin = details: background; cited from earlier work
[7] = po, 1 h, read-out: ED50 (tremors)
[8] = Examples 71-77, read-out: MPE50
[9] = 1 h, mice, oral, 100 mg./kg. i.p. 5HTP one hour later, read-out: ED50 (tremors)
[10] = mice, oral, read-out: ED50 (tremors), no observed tremors
[11] = read-out: MPE50, footnoted no observed effect on immobility
[12] = po, read-out: ED50 (tremors), no observed tremors

## CN(C)[C@@H]1CC[C@H](c2ccc(Cl)cc2)c2ccccc21 (relative stereo) [Example 24, Cis-N,N-dimethyl-4-(4-chlorophenyl)-1,2,3,4-tetrahydro-1-naphthalenamine]
[1]; Examples 26-49
  IC50: 1200 nM
[2]; Examples 26-49
  IC50: 5600 nM

## CN[C@H]1CC[C@@H](c2ccc(Cl)c(Cl)c2)c2ccccc21 (relative stereo) [Example 1, Cis-(1S)(1R)-N-methyl-4-(3,4-dichlorophenyl)-1,2,3,4-tetrahydro-1-naphthalenamine Hvdrochloride]
[3]; [7]
  ED50: 3.2 to 5.6 mg/kg
[4]; [8]
  ED50: 4.5 mg/kg

## CN[C@H]1CC[C@@H](c2ccc(Cl)cc2Cl)c2ccccc21 (relative stereo) [Example 20, Cis-(1S)(1R)-N-methyl-4-(2,4-dichlorophenyl)-1,2,3,4-tetrahydro-1-naphthalenamine Hydrochloride]
[1]; Examples 26-49
  IC50: 310 nM
[2]; Examples 26-49
  IC50: 1700 nM

## CN[C@H]1CC[C@@H](c2ccc(Cl)cc2)c2ccc(OC)cc21 (relative stereo) [Example 21, Cis-(1S) (1R)-N-methyl-4-(4-chlorophenyl)-7-methoxy-1,2,3,4-tetrahydro-1-naphthalenamine Hydrochloride]
[1]; Examples 26-49
  IC50: 470 nM
[5]
  IC50: 190 nM
[2]; Examples 26-49
  IC50: 440 nM

## CN[C@H]1CC[C@@H](c2cccc(OC)c2)c2ccccc21 (relative stereo) [Example 19]
[1]; Examples 26-49
  IC50: 1400 nM
[5]
  IC50: 7600 nM
[2]; Examples 26-49
  IC50: 5000 nM

## CN[C@@H]1CC[C@@H](c2ccccc2)c2ccccc21 [trans-(1R)-N-methyl-4-phenyl-1,2,3,4-tetrahydro-1-naphthalenamine]
[6]
  synaptosomal norepinephrine uptake blocking activity (in words): excellent

## CN[C@@H]1CC[C@H](c2ccc(Cl)c(C(F)(F)F)c2)c2ccccc21 (relative stereo) [Example 12, Cis-N-methyl-4-(3-trifluoromethyl-4-chlorophenyl)-1,2,3,4-tetrahydro-1-naphthalenamine]
[3]; [9]
  ED50: 1 to 3.2 mg/kg
[2]; Examples 26-49
  IC50: 1500 nM

## CN[C@H]1CC[C@@H](c2ccc(Br)cc2)c2ccccc21 (relative stereo) [Example 16, Cis-(1S)(1R)-N-methyl-4-(4-bromophenyl)-1,2,3,4-tetrahydro-1-naphthalenamine Hydrochloride]
[1]; Examples 26-49
  IC50: 1400 nM
[5]
  IC50: 190 nM
[2]; Examples 26-49
  IC50: 1600 nM

## COCCCC/C(=N\OCCN)c1ccc(C(F)(F)F)cc1 [fluvoxamine]
Uptake of serotonin
  serotonin uptake blockade compared to norepinephrine blockade (in words): selectively block the uptake of serotonin

## CN[C@@H]1CC[C@H](c2ccc(Cl)c(C(F)(F)F)c2)c2ccccc21 [Example 14]
[1]; Examples 26-49
  IC50: 2400 nM
[3]; [10]
  ED50: > 32 mg/kg
[2]; Examples 26-49
  IC50: 550 nM

## CN(C)C/C=C(/c1ccc(Br)cc1)c1cccnc1 [zimelidine]
Uptake of serotonin
  serotonin uptake blockade compared to norepinephrine blockade (in words): selectively block the uptake of serotonin

## CN[C@@H]1CC[C@H](c2ccc(Cl)cc2)c2ccccc21 (relative stereo) [Example 6, Cis-N-methyl-4-(4-chlorophenyl)-1,2,3,4-tetrahydro-1-naphthalenamine Hydrochloride]
[1]; Examples 26-49, Hydrochloride
  IC50: 1200 nM
[2]; Examples 26-49, Hydrochloride
  IC50: 1500 nM

## CN[C@H]1CC[C@@H](c2ccc(Cl)c(Cl)c2)c2ccccc21.Cl [Example 2, Cis-(1S)-N-methyl-4-(3,4-dichlorophenyl)-1,2,3,4-tetrahydro-1-naphthalenamine Hydrochloride]
[4]; 0.10 mg./kg. subcutaneous
  % MPE: 7.9%
[4]; 0.32 mg./kg. subcutaneous
  % MPE: 24%
[4]; 1.00 mg./kg. subcutaneous
  % MPE: 17%
[4]; 3.20 mg./kg. subcutaneous
  % MPE: 41%
[4]; 10.0 mg./kg. subcutaneous
  % MPE: 57%
[4]; 17.8 mg./kg. subcutaneous
  % MPE: 57%
[4]; 32.0 mg./kg. subcutaneous
  % MPE: 66%

## CN[C@@H]1CC[C@H](c2ccc(Cl)cc2)c2ccccc21.Cl (relative stereo) [Example 4, Cis-N-methyl-4-(4-chlorophenyl)-1,2,3,4-tetrahydro-1-naphthalenamine Hydrochloride]
[3]; [7]
  ED50: 10 to 32 mg/kg

## CN[C@@H]1CC[C@H](c2ccc(C(F)(F)F)cc2)c2ccccc21 [Example 10]
[1]; Examples 26-49
  IC50: 12000 nM
[5]
  IC50: 2200 nM
[3]; [10]
  ED50: > 32 mg/kg
[2]; Examples 26-49
  IC50: 5600 nM

## CN[C@@H]1CC[C@H](c2ccc(Cl)cc2)c2ccccc21.Cl (relative stereo) [Example 5, Cis-N-methyl-4-(4-chlorophenyl)-1,2,3,4-tetrahydro-1-naphthalenamine Hydrochloride]
[1]; Examples 26-49, Hydrochloride
  IC50: 5000 nM
[3]; [10]
  ED50: > 10 mg/kg

## CN[C@@H]1CC[C@H](c2cccc(C(F)(F)F)c2)c2ccccc21 (relative stereo) [Example 11, Cis-N-methyl-4-(3-trifluoromethyl-phenyl)-1,2,3,4-tetrahydro-1-naphthalenamine]
[1]; Examples 26-49
  IC50: 2500 nM
[5]
  IC50: 250 nM
[3]; [7]
  ED50: 10 to 32 mg/kg
[4]; 32.0 mg./kg. subcutaneous
  % MPE: 45%
[4]; 56.0 mg./kg. subcutaneous, apparent overdosage
  % MPE: 10%
[4]; [8]
  ED50: 42 mg/kg
[2]; Examples 26-49
  IC50: 2500 nM

## CN[C@H]1CC[C@@H](c2ccccc2OC)c2ccccc21 (relative stereo) [Example 18]
[1]; Examples 26-49
  IC50: 2300 nM
[5]
  IC50: 4200 nM
[3]; [10]
  ED50: > 32 mg/kg
[4]; [8]
  ED50: > 32 mg/kg
[2]; Examples 26-49
  IC50: 11000 nM

## CN(C)[C@H]1CC[C@@H](c2cccc(C(F)(F)F)c2)c2ccccc21 (relative stereo) [Example 22, Cis-(1S)(1R)-N,N-dimethyl-4-(3-trifluoromethylphenyl)-1,2,3,4-tetrahydro-1-naphthalenamine Maleate]
[1]; Examples 26-49
  IC50: 890 nM
[5]
  IC50: 190 nM
[3]; [7]
  ED50: 3.2 to 10 mg/kg
[4]; [11]
  ED50: > 56 mg/kg
[2]; Examples 26-49
  IC50: 7000 nM

## CN[C@H]1CC[C@@H](c2ccc(Cl)cc2)c2ccc(Cl)cc21 (relative stereo) [Example 15, Cis-(1S)(1R)-N-methyl-4-(4-chlorophenyl)-7-chloro-1,2,3,4-tetrahydro-1-naphthalenamine Hydrochloride]
[1]; Examples 26-49
  IC50: 2200 nM
[5]
  IC50: 300 nM
[2]; Examples 26-49
  IC50: 1300 nM

## CN[C@H]1CC[C@@H](c2ccc(C(F)(F)F)cc2)c2ccccc21 [Example 9]
[1]; Examples 26-49
  IC50: 9400 nM
[3]; [9]
  ED50: < 32 mg/kg
[2]; Examples 26-49
  IC50: 6400 nM

## CN[C@H]1CC[C@@H](c2ccccc2)c2ccccc21 (relative stereo) [Comparative Example, Cis(1S) (1R)N--methyl-4-phenyl-1,2,3,4-tetrahydro-1-naphthalenamin hydrochloride, reference compound]
[1]; Examples 26-49
  IC50: 1900 nM
[5]
  IC50: 3500 nM
[3]; [12]
  ED50: > 32 mg/kg
[4]; [11]
  ED50: > 32 mg/kg
[2]; Examples 26-49
  IC50: 5100 nM

## CN[C@H]1CC[C@@H](c2ccc(Cl)c(C(F)(F)F)c2)c2ccccc21 [Example 13]
[1]; Examples 26-49
  IC50: 3600 nM
[3]; [7]
  ED50: 3.2 to 10 mg/kg
[2]; Examples 26-49
  IC50: 6800 nM

## CN(C)[C@H]1CC[C@@H](c2ccc(C(F)(F)F)cc2)c2ccccc21 (relative stereo) [Example 23]
[1]; Examples 26-49
  IC50: 14000 nM
[3]; [7]
  ED50: 32 to 56 mg/kg
[2]; Examples 26-49
  IC50: 12000 nM

## CN[C@H]1CC[C@@H](c2ccc(F)cc2)c2ccccc21 (relative stereo) [Example 7, Cis-(1S)(1R)-N-methyl-4-(4-fluorophenyl)-1,2,3,4-tetrahydro-1-naphthalenamine Hydrochloride]
[1]; Examples 26-49
  IC50: 2300 nM
[3]; [12]
  ED50: > 32 mg/kg
[4]; [8]
  ED50: 138 mg/kg
[2]; Examples 26-49
  IC50: 4700 nM

## CN[C@H]1CC[C@@H](c2ccc(C(F)(F)F)cc2)c2ccccc21 (relative stereo) [Example 8]
[1]; Examples 26-49
  IC50: 9800 nM
[5]
  IC50: 820 nM
[3]; [9]
  ED50: 10 to 32 mg/kg
[2]; Examples 26-49
  IC50: 7800 nM

## CN[C@H]1CC[C@@H](c2ccc(OC)cc2)c2ccccc21 (relative stereo) [Example 17, Cis-(1S)(1R)-N-methyl-4-(4-methoxyphenyl)-1,2,3,4-tetrahydro-1-naphthalenamine Hydrochloride]
[1]; Examples 26-49
  IC50: 3000 nM
[2]; Examples 26-49
  IC50: 4200 nM
